In patent US11071300B2, “Pesticidally active pyrazole derivatives” (SYNGENTA PARTICIPATIONS AG, priority 2017, dated 2021):

Experiments:
Type in all cases: in vivo
Myzus persicae = Myzus persicae (green peach aphid) leaf disc test; conditions: foliar, 144 h, application rate 200 ppm, sunflower leaf discs sprayed, mixed ages, 6 DAT, read-out: control (mortality)
Experimental: Myzus persicae (Green Peach Aphid):
Sunflower leaf discs were placed on agar in a 24-well microtiter plate and sprayed with test solutions at an application rate of 200 ppm. After drying, the leaf discs were infested with an aphid population of mixed ages. After an incubation period of 6 DAT, samples were checked for mortality.

Thrips tabaci = Thrips tabaci (onion thrips) leaf disc test; conditions: foliar, 144 h, application rate 200 ppm, sunflower leaf discs sprayed, mixed ages, 6 days after infestation, read-out: control (mortality)
Experimental: Thrips tabaci (Onion Thrips):
(§1) Sunflower leaf discs were placed on agar in 24-well microtiter plates and sprayed with aqueous test solutions prepared from 10′000 ppm DMSO stock solutions. After drying the leaf discs were infested with a thrips population of mixed ages. The samples were assessed for mortality 6 days after infestation.

Euschistus heros = Euschistus heros (neotropical brown stink bug) soybean leaf test; conditions: 120 h, application rate 200 ppm, soybean leaves sprayed, N2 nymphs, 5 days after infestation, read-out: control (mortality and growth inhibition)
Experimental: Euschistus heros (Neotropical Brown Stink Bug):
Soybean leaves on agar in 24-well microtiter plates were sprayed with aqueous test solutions prepared from 10′000 ppm DMSO stock solutions. After drying the leaves were infested with N2 nymphs. The samples were assessed for mortality and growth inhibition in comparison to untreated samples 5 days after infestation.

Plutella xylostella = Plutella xylostella (diamond back moth) artificial diet test; conditions: 120 h, application rate 200 ppm, artificial diet, L2 larvae, 5 days after infestation, read-out: control (mortality and growth inhibition)
Experimental: Plutella xylostella (Diamond Back Moth):
(§2) 24-well microtiter plates with artificial diet were treated with aqueous test solutions prepared from 10′000 ppm DMSO stock solutions by pipetting. After drying, the plates were infested with L2 larvae (10 to 15 per well). The samples were assessed for mortality and growth inhibition in comparison to untreated samples 5 days after infestation.

Spodoptera littoralis = Spodoptera littoralis (Egyptian cotton leaf worm) leaf disc test; conditions: foliar, 72 h, application rate 200 ppm, cotton leaf discs sprayed, L1 larvae, 3 days after infestation, read-out: control (at least one of mortality, anti-feedant effect, growth inhibition)
Summary of the method: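 Cotton leaf discs on agar were sprayed with aqueous dilutions of 10′000 ppm DMSO stocks, dried and infested with five L1 larvae. Mortality, anti-feedant effect and growth inhibition were scored against untreated samples 3 days after infestation. Control = any of these higher than untreated.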

Diabrotica Balteata = experiment: Diabrotica balteata (corn root worm) maize sprout test; conditions: 96 h, application rate 200 ppm, maize sprouts sprayed, L2 larvae, 4 days after infestation, read-out: control (mortality and growth inhibition)
Experimental: Diabrotica Balteata, (Corn Root Worm)
as §2, with “Maize sprouts, placed on an agar layer in 24-well” for “24-well”, “plates” for “plates with artificial diet”, “spraying.” for “pipetting.”, “(6” for “(10”, “10” for “15”, “4” for “5”

Tetranychus urticae = Tetranychus urticae (two-spotted spider mite) leaf disc test; conditions: foliar, 192 h, application rate 200 ppm, bean leaf discs sprayed, 8 days after infestation, read-out: control (mortality on mixed population, mobile stages)
Experimental: Tetranychus urticae (Two-Spotted Spider Mite):
as §1, with “Bean” for “Sunflower”, “discs” for “discs were placed”, “were” for “and”, “mite” for “thrips”, “on mixed population (mobile stages) 8” for “6”

Cn1nc(OS(=O)(=O)C(F)(C(F)(F)F)C(F)(F)F)c(C(F)(F)F)c1-c1cc(-c2ccc(Cl)c(C(=O)NC3(C#N)CC3)c2)on1 [Compound 36, [5-[5-[4-chloro-3-[(1-cyanocyclopropyl)carbamoyl]phenyl]isoxazol-3-yl]-1-methyl-4-(trifluoromethyl)pyrazol-3-yl] 1,1,1,2,3,3,3-heptafluoropropane-2-sulfonate]
≥ 80%: mortality at 200 ppm (Myzus persicae) | mortality at 200 ppm (Thrips tabaci) | mortality at 200 ppm (Euschistus heros) | mortality at 200 ppm (Plutella xylostella) | percent control (mortality, anti-feedant effect or growth inhibition) at 200 ppm (Spodoptera littoralis) | mortality at 200 ppm (Diabrotica Balteata) | mortality at 200 ppm (Tetranychus urticae)

C#CCN(C(=O)c1cc(-c2cnn(-c3c(C(F)(F)F)c(OS(=O)(=O)C(F)(C(F)(F)F)C(F)(F)F)nn3C)c2)ccc1Cl)C1(C#N)CC1 [Compound 50, [5-[4-[4-chloro-3-[(1-cyanocyclopropyl)-prop-2-ynyl-carbamoyl]phenyl]pyrazol-1-yl]-1-methyl-4-(trifluoromethyl)pyrazol-3-yl] 1,1,1,2,3,3,3-heptafluoropropane-2-sulfonate]
≥ 80%: mortality at 200 ppm (Myzus persicae) | mortality at 200 ppm (Thrips tabaci) | mortality at 200 ppm (Euschistus heros) | mortality at 200 ppm (Plutella xylostella) | percent control (mortality, anti-feedant effect or growth inhibition) at 200 ppm (Spodoptera littoralis) | mortality at 200 ppm (Diabrotica Balteata) | mortality at 200 ppm (Tetranychus urticae)

Cn1nc(OS(=O)(=O)C(F)(F)C(F)(F)Cl)c(C(F)(F)F)c1-n1cc(-c2ccc(Cl)c(C(=O)NC3CC3)c2)cn1 [Compound 9, [5-[4-[4-chloro-3-(cyclopropylcarbamoyl)phenyl]pyrazol-1-yl]-1-methyl-4-(trifluoromethyl)pyrazol-3-yl] 2-chloro-1,1,2,2-tetrafluoro-ethanesulfonate]
≥ 80%: mortality at 200 ppm (Myzus persicae) | mortality at 200 ppm (Thrips tabaci) | mortality at 200 ppm (Euschistus heros) | mortality at 200 ppm (Plutella xylostella) | percent control (mortality, anti-feedant effect or growth inhibition) at 200 ppm (Spodoptera littoralis) | mortality at 200 ppm (Diabrotica Balteata) | mortality at 200 ppm (Tetranychus urticae)

CC(=O)N(C(=O)c1cc(-c2cnn(-c3c(C(F)(F)F)c(OS(=O)(=O)C(F)(C(F)(F)F)C(F)(F)F)nn3C)c2)ccc1Cl)C1(C#N)CC1 [Compound 46, [5-[4-[3-[acetyl-(1-cyanocyclopropyl)carbamoyl]-4-chloro-phenyl]pyrazol-1-yl]-1-methyl-4-(trifluoromethyl)pyrazol-3-yl] 1,1,1,2,3,3,3-heptafluoropropane-2-sulfonate]
≥ 80%: mortality at 200 ppm (Myzus persicae) | mortality at 200 ppm (Thrips tabaci) | mortality at 200 ppm (Euschistus heros) | mortality at 200 ppm (Plutella xylostella) | percent control (mortality, anti-feedant effect or growth inhibition) at 200 ppm (Spodoptera littoralis) | mortality at 200 ppm (Diabrotica Balteata) | mortality at 200 ppm (Tetranychus urticae)

CCC(=O)N(C(=O)c1cc(-c2cnn(-c3c(C(F)(F)F)c(OS(=O)(=O)C(F)(C(F)(F)F)C(F)(F)F)nn3C)c2)ccc1Cl)C1(C#N)CC1 [Compound 54, [5-[4-[4-chloro-3-[(1-cyanocyclopropyl)-propanoyl-carbamoyl]phenyl]pyrazol-1-yl]-1-methyl-4-(trifluoromethyl)pyrazol-3-yl] 1,1,1,2,3,3,3-heptafluoropropane-2-sulfonate]
≥ 80%: mortality at 200 ppm (Myzus persicae) | mortality at 200 ppm (Thrips tabaci) | mortality at 200 ppm (Euschistus heros) | mortality at 200 ppm (Plutella xylostella) | percent control (mortality, anti-feedant effect or growth inhibition) at 200 ppm (Spodoptera littoralis) | mortality at 200 ppm (Diabrotica Balteata) | mortality at 200 ppm (Tetranychus urticae)

Cn1nc(OS(=O)(=O)C(F)(C(F)(F)F)C(F)(F)F)c(C(F)(F)F)c1-n1cc(-c2cnc(Cl)c(C(=O)NC3CC3)c2)cn1 [Compound 21, [5-[4-[6-chloro-5-(cyclopropylcarbamoyl)-3-pyridyl]pyrazol-1-yl]-1-methyl-4-(trifluoromethyl)pyrazol-3-yl] 1,1,1,2,3,3,3-heptafluoropropane-2-sulfonate]
≥ 80%: mortality at 200 ppm (Myzus persicae) | mortality at 200 ppm (Thrips tabaci) | mortality at 200 ppm (Euschistus heros) | mortality at 200 ppm (Plutella xylostella) | percent control (mortality, anti-feedant effect or growth inhibition) at 200 ppm (Spodoptera littoralis) | mortality at 200 ppm (Diabrotica Balteata) | mortality at 200 ppm (Tetranychus urticae)

CN(C(=O)c1cc(-c2cc(-c3c(C(F)(F)F)c(OS(=O)(=O)C(F)(C(F)(F)F)C(F)(F)F)nn3C)no2)ccc1Cl)C1CC1 [Compound 34, [5-[5-[4-chloro-3-[cyclopropyl(methyl)carbamoyl]phenyl]isoxazol-3-yl]-1-methyl-4-(trifluoromethyl)pyrazol-3-yl] 1,1,1,2,3,3,3-heptafluoropropane-2-sulfonate]
≥ 80%: mortality at 200 ppm (Myzus persicae) | mortality at 200 ppm (Thrips tabaci) | mortality at 200 ppm (Euschistus heros) | mortality at 200 ppm (Plutella xylostella) | percent control (mortality, anti-feedant effect or growth inhibition) at 200 ppm (Spodoptera littoralis) | mortality at 200 ppm (Diabrotica Balteata) | mortality at 200 ppm (Tetranychus urticae)

Cn1nc(OS(=O)(=O)C(F)(C(F)(F)F)C(F)(F)F)c(C(F)(F)F)c1-n1cc(-c2ccc(Cl)c(C(=O)N(C(=O)C(C)(C)C)C3(C#N)CC3)c2)cn1 [Compound 59, [5-[4-[4-chloro-3-[(1-cyanocyclopropyl)-(2,2-dimethylpropanoyl)carbamoyl]phenyl]pyrazol-1-yl]-1-methyl-4-(trifluoromethyl)pyrazol-3-yl] 1,1,1,2,3,3,3-heptafluoropropane-2-sulfonate]
≥ 80%: mortality at 200 ppm (Myzus persicae) | mortality at 200 ppm (Thrips tabaci) | mortality at 200 ppm (Euschistus heros) | mortality at 200 ppm (Plutella xylostella) | percent control (mortality, anti-feedant effect or growth inhibition) at 200 ppm (Spodoptera littoralis) | mortality at 200 ppm (Diabrotica Balteata) | mortality at 200 ppm (Tetranychus urticae)
